Here are results for 3 compounds from US20250034579A1, “METHODS AND COMPOSITIONS FOR GENETICALLY MODIFYING HUMAN GUT MICROBES” (Cornell University, priority 2021, published 2025).

In data set [1] the test system is Bacteroides and Erysipelotrichaceae microbes. The data set can be described thus: Growth curve of bacteria in the presence of bile acids (OD600). The class given is cell-based. Conditions: 500 μM bile acid, DMSO control; 2 Bacteroides, 7 Erysipelotrichaceae. As for the experimental part: Bacteroides (Bacteroides fragilis 3112 (Bac1) and Bacteroides vulgatus ATCC 8482 (Bac2)) and Erysipelotrichaceae (Clostridium ramosum ATCC 25554 (Ery1), Erysipelatoclostridium ramosum strain 113-1 (Ery2), Clostridium ramosum DSM 24812 (Ery3), Clostridium ramosum DSM 1402 (Ery4), HM-173 Clostridium innocuum 6_1_30 (Ery5), Clostridium innocuum DSM 22910 (Ery6) and Holdemania filiformis DSM 12042 (Ery7)) were streaked from a glycerol stock onto TSAB agar plates and incubated anaerobically for ˜ 24 h at 37° C. Three colonies were inoculated into 1 ml of Mega broth and were anaerobically cultured for overnight at 37° C. Cells were diluted 1,000-fold into Mega broth to reach late-log phase. Then 5 μL of the culture was resuspended in 145 μL broth, loaded into a 96-well plated, and incubated anaerobically at 37° C. in Multiskan Sky Microplate Spectrophotometer (Thermo Fisher Scientific). Four bile acids (CA, 7-oxoCA, DCA, and 3-oxoDCA, 500 μM each) were tested with their solvent DMSO as control. Optical densities at 600 nm (OD600) were recorded every 60 min until the cultures reached the stationary phase. Bacterial growth curves were performed in triplicate with each biological replicate deriving from a single colony.

Data set [2] relates to Erysipelotrichaceae microbes. The class given is cell-based. Particulars: in vitro consortium of 2 Bacteroides and 7 Erysipelotrichaceae; DCA at 0, 250 and 500 μM.
Data set [3] concerns Bacteroidia (Prevotella and Bacteroides) microbes. Briefly: Antibiotics test of Gram-negative Bacteroidia strains on agar plates. It is filed as cell-based. Conditions: 66 Bacteroidia strains; TSAB plates with 15 μg/mL thiamphenicol (or MICs).
The conditions of data set [4]: SPF mice; drinking water with thiamphenicol 15 μg/ml and erythromycin 10 μg/ml.

The structures appear in SMILES notation.

Regarding `C[C@H](CCC(=O)O)[C@H]1CC[C@H]2[C@@H]3CC[C@@H]4C[C@H](O)CC[C@]4(C)[C@H]3C[C@H](O)[C@]12C` [DCA, deoxycholic acid], in data set [1], the “resistance of Erysipelotrichaceae microbes versus Bacteroides microbes (growth curve)” value is on record as “more resistant”. Besides, the “expansion of Erysipelotrichaceae microbes (relative fold change by qPCR)” value in data set [2] is given as “drives expansion”.
As for `C[C@H](CCC(=O)O)[C@H]1CC[C@H]2[C@@H]3CC[C@@H]4CC(=O)CC[C@]4(C)[C@H]3C[C@H](O)[C@]12C` [3-oxo DCA], the “resistance of Erysipelotrichaceae microbes versus Bacteroides microbes (growth curve)” value in data set [1] is given as “more resistant”.
Consider `CS(=O)(=O)c1ccc([C@@H](O)[C@@H](CO)NC(=O)C(Cl)Cl)cc1` [thiamphenicol], for which, in data set [3], the resistance against thiamphenicol entry was “not resistant”. Further, the “accumulation of supplemented antibiotic in the feces” value in data set [4] is reported as approximately 5 pmol/mg.
